Results reported in ChEMBL document CHEMBL1201862, “PubChem BioAssay data set” (2004).
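48-hour exposure; five concentrations; linearly interpolated endpoints. Abbreviation: GI50, concentration required for 50% inhibition of growth.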 Calls of active or inactive are those of the source. No stated cut-off is given here; in the data, active = GI50 up to about 1.1 µM and inactive = higher.

Columns and labels:
Assay in all cases: NCI tumour cell line growth inhibition, 48 h
[1] = test system: KM12
[2] = test system: A498
[3] = test system: HOP-62
[4] = test system: NCI-H23
[5] = test system: COLO 205
[6] = test system: RXF 393
[7] = test system: HOP-18
[8] = test system: SNB-19
[9] = test system: DMS-273
[10] = test system: LOX IMVI
[11] = test system: OVCAR-8
[12] = test system: KM-20L2
[13] = test system: UACC-257
[14] = test system: SNB-78
[15] = test system: HCT-116
[16] = test system: U-251
[17] = test system: SK-MEL-28
[18] = test system: LXFL 529
[19] = test system: SF-295
[20] = test system: SW-620
[21] = test system: ACHN
[22] = test system: HL-60
[23] = test system: SF-268
[24] = test system: NCI-H460
[25] = test system: M19-MEL
[26] = test system: SK-OV-3
[27] = test system: HOP-92
[28] = test system: DLD-1
[29] = test system: UO-31
[30] = test system: EKVX
[31] = test system: A549
[32] = test system: SNB-75
[33] = test system: OVCAR-5
[34] = test system: TK-10
[35] = test system: HT-29
[36] = test system: DMS-114
[37] = test system: CCRF-CEM
[38] = test system: NCI-H522
[39] = test system: XF498
[40] = test system: OVCAR-3
[41] = test system: SF-539
[42] = test system: MOLT-4
[43] = test system: RPMI-8226
[44] = test system: IGROV-1
[45] = test system: K562
[46] = test system: HCC 2998

Measured: GI50

CC(c1ccccc1)/[N+]([O-])=C/c1ccccc1 (stereo unspecified)
inactive: [1] > 100 µM | [2] > 100 µM | [3] > 100 µM | [4] > 100 µM | [5] > 100 µM | [6] > 100 µM | [7] 34.9 µM | [8] > 100 µM | [9] > 100 µM | [10] > 100 µM | [11] > 100 µM | [12] > 100 µM | [13] > 100 µM | [14] > 100 µM | [15] > 100 µM | [16] > 100 µM | [17] > 100 µM | [18] > 100 µM | [19] > 100 µM | [20] > 100 µM | [21] > 100 µM | [22] > 100 µM | [23] > 100 µM | [24] > 100 µM | [25] > 100 µM | [26] > 100 µM | [27] > 100 µM | [28] > 100 µM | [29] > 100 µM | [30] > 100 µM | [31] > 100 µM | [32] > 100 µM | [33] > 100 µM | [34] > 100 µM | [35] > 100 µM | [36] > 100 µM | [37] > 100 µM | [38] > 100 µM | [39] > 100 µM | [40] > 100 µM | [41] > 100 µM | [42] > 100 µM | [43] > 100 µM | [44] > 100 µM | [45] > 100 µM | [46] > 100 µM
